Assay results: patent US8962641B2, “Pyrimidine-substituted pyrrolidine derivatives, pharmaceutical compositions and uses thereof” (Boehringer Ingelheim International GmbH, priority 2013, dated 2015)

Biological target: human ACC2 (Homo sapiens (Human), UniProt O00763)
Assay: ACC2 assay (spectrophotometric 384 well assay, NADH-linked kinetic method)
Format: biochemical
Conditions: hACC2 construct lacking 128 N-terminal amino acids; coupled lactate dehydrogenase/pyruvate kinase reaction, 340 nm, 25° C.
Description: Spectrophotometric 384 Well Assay
Malonyl CoA formation by acetyl CoA carboxylases is stoichometrically linked to the consumption of ATP. ACC2 activity is measured in a NADH-linked kinetic method measuring ADP generated during the ACC reaction using a coupled lactate dehydrogenase/pyruvate kinase reaction.
The protein is then expressed in insect cells using a baculoviral expression system. Protein purification is performed by anion exchange.
All compounds are dissolved in dimethyl sulfoxide (DMSO) to a concentration of 10 mM.
The enzymatic reaction is then started by addition of a mixture of NADH, acetyl Coenzyme A (both 200 μM f.c.) and ATP (500 uM f.c.). The decrease of the optical density (slope S) is then determined at 25° C. at a wavelength of 340 nm over 15 minutes in a spectrophotometric reader.
Each assay microtiter plate contains wells with vehicle instead of compound as controls for the non-inhibited enzyme (100% CTL; ‘HIGH’) and wells without acetyl-CoA as controls for non-specific NADH degradation (0% CTL; ‘LOW’).

Chain of human ACC2 (O00763 129-2458): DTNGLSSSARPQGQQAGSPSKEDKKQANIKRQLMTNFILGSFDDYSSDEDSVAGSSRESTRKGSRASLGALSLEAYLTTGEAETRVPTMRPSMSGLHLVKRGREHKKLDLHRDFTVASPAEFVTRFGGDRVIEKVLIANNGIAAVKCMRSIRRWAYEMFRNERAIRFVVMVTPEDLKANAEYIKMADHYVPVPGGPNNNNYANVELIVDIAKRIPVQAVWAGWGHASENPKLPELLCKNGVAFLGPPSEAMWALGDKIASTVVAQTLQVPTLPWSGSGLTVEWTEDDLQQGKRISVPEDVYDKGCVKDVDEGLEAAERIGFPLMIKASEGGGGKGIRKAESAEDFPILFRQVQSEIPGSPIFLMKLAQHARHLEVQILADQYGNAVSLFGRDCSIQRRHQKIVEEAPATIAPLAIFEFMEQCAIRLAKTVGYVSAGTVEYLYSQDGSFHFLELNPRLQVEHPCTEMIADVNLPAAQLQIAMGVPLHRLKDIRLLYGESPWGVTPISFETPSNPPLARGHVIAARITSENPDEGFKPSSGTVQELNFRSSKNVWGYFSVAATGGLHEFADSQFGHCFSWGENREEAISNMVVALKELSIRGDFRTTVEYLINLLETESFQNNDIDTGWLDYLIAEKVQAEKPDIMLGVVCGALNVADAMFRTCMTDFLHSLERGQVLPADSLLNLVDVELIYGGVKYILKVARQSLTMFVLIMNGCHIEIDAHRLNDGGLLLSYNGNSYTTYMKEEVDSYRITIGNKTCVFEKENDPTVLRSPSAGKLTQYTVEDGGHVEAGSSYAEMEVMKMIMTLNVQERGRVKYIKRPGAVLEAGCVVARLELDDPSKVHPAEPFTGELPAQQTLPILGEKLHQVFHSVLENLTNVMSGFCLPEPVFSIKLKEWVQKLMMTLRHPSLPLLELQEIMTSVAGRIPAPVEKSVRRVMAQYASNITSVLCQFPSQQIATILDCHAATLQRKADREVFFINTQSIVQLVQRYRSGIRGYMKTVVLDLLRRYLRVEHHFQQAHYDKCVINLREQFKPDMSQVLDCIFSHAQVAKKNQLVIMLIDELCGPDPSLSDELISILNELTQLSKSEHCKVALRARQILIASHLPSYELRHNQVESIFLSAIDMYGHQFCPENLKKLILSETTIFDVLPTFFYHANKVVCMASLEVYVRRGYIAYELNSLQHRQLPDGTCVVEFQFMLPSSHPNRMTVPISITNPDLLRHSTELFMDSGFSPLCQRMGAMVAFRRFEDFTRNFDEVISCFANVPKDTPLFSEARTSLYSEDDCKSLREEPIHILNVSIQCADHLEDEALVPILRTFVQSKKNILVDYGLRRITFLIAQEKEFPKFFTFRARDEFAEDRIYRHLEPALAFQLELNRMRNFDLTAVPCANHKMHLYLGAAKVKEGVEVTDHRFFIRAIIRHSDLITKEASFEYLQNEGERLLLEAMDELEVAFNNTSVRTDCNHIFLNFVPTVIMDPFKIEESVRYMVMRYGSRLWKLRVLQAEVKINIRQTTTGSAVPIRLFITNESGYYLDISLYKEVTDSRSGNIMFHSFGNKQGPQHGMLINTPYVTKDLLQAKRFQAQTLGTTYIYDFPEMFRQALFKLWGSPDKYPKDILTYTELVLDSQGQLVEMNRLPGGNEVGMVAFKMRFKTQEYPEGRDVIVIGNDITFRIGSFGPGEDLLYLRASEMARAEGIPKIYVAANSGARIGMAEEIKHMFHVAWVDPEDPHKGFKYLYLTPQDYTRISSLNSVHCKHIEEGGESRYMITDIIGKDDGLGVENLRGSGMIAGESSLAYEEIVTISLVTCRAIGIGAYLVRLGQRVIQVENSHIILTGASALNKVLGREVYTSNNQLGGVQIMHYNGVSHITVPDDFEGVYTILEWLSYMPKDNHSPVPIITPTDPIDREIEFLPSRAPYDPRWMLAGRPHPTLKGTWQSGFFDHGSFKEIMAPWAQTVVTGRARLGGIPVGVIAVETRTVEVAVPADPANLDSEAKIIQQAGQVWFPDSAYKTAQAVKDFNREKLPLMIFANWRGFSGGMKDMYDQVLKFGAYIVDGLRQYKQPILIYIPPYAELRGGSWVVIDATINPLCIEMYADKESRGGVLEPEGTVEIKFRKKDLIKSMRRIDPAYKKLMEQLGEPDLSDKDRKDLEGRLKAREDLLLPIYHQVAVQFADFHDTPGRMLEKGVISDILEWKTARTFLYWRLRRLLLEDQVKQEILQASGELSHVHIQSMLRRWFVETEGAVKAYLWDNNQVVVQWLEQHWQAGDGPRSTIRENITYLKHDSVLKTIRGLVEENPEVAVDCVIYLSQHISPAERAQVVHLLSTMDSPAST

Point of comparison: CC(=O)N[C@@H](C)c1ccc(O[C@@H]2CCN(c3ncnc(N4CCC[C@H]4C)c3F)C2)cc1 [Example 8.286], IC50 165 nM. Against it:
- COC[C@@H](C)N(C)c1ncc(Cl)c(N2CC[C@@H](Oc3ccc([C@H](C)NC(C)=O)cc3)C2)n1 [Example 8.225] — within 1.5-fold, 199 nM
- CC(=O)N[C@@H](C)c1ccc(O[C@@H]2CCN(c3nc(N4CCOCC4)ncc3Cl)C2)cc1 [Example 8.96] — 1.6-fold higher, 265 nM
- CC(=O)N[C@@H](C)c1ccc(O[C@@H]2CCN(c3ncnc(NCC4(O)CC4)c3Cl)C2)cc1 [Example 8.305] — within 1.5-fold, 176 nM
- CCN(C)c1nccc(N2CC[C@@H](Oc3ccc([C@H](C)NC(=O)C(F)F)cc3)C2)n1 [Example 5.1, N—((S)-1-(4-((R)-1-(2-(ethyl(methyl)amino)pyrimidin-4-yl)pyrrolidin-3-yloxy)phenyl)ethyl)-2,2-difluoroacetamide] — 2.8-fold lower, 59 nM
- CC(=O)N[C@@H](C)c1ccc(O[C@@H]2CCN(c3nc(N4CCC5(CC5)C4)ncc3F)C2)cc1 [Example 8.226] — 3.2-fold lower, 52 nM
- CCCN(C)c1ncc(C)c(N2CC[C@@H](Oc3ccc([C@H](C)NC(C)=O)cc3)C2)n1 [Example 8.48] — 1.9-fold higher, 312 nM
- CCN(C)c1nccc(N2CCC(Oc3ccc([C@H](C)NC(=O)c4sc(NC(C)=O)nc4C)cc3)C2)n1 (stereo partly shown) [Example 2.8] — within 1.5-fold, 245 nM
- CC(=O)N[C@@H](C)c1ccc(O[C@@H]2CCN(c3nc(N4CCC5(CC5)C4)ncc3Cl)C2)cc1 [Example 8.276] — within 1.5-fold, 174 nM
- C[C@H](NC(=O)Nc1ccon1)c1ccc(OC2CCN(c3ccnc(N4CCOCC4)n3)C2)cc1 (stereo partly shown) [Example 3.5] — 1.8-fold higher, 299 nM
- COc1c(OCC(C)(C)OC)ncnc1N1CC[C@@H](Oc2ccc([C@H](C)NC(C)=O)cc2)C1 [Example 7.61] — within 1.5-fold, 233 nM
- CCN(CC)c1nccc(N2CC[C@@H](Oc3ccc([C@H](C)NC(C)=O)cc3)C2)n1 [Example 8.24] — within 1.5-fold, 174 nM
- CC(=O)N[C@@H](C)c1ccc(O[C@@H]2CCN(c3nc(N(C)C4CCCC4)ncc3C#N)C2)cc1 [Example 8.33] — 6.4-fold higher, 1060 nM
- CC(=O)N[C@@H](C)c1ccc(O[C@@H]2CCN(c3ncnc(N4CCC5(CC5)C4)c3Cl)C2)cc1 [Example 8.113] — 4.1-fold lower, 40 nM
- CC(=O)N[C@@H](C)c1ccc(O[C@@H]2CCN(c3ncnc(N4CC(F)(F)C(F)(F)C4)c3F)C2)cc1 [Example 8.231] — within 1.5-fold, 127 nM
- COCCCN(C)c1ncnc(N2CC[C@@H](Oc3ccc([C@H](C)NC(C)=O)cc3)C2)c1F [Example 8.270] — 2.8-fold higher, 455 nM
- CC(=O)N[C@@H](C)c1ccc(O[C@@H]2CCN(c3ncnc(OCC4CC4)c3C)C2)cc1 [Example 7.25] — 2.5-fold lower, 67 nM
- CC(=O)N[C@@H](C)c1ccc(O[C@@H]2CCN(c3ncnc(N4CCOC(C)C4)c3F)C2)cc1 (stereo partly shown) [Example 8.179] — 2.2-fold higher, 358 nM
- CC(=O)N[C@@H](C)c1ccc(O[C@@H]2CCN(c3nc(N(C)C4CCC4)ncc3Cl)C2)cc1 [Example 8.267] — 2.6-fold lower, 64 nM
- CC(=O)N[C@@H](C)c1ccc(O[C@@H]2CCN(c3ncc(C4CC4)cn3)C2)cc1 [Example 6.4] — 12-fold higher, 1910 nM
- CCCNc1ncnc(N2CC[C@@H](Oc3ccc([C@H](C)NC(C)=O)cc3)C2)c1OC [Example 8.301] — 4.9-fold higher, 809 nM
- CC(=O)N[C@@H](C)c1ccc(O[C@@H]2CCN(c3ccnc(NC4CCCC4)n3)C2)cc1 [Example 8.4] — 6.2-fold higher, 1030 nM
- CC(=O)N[C@@H](C)c1ccc(O[C@@H]2CCN(c3ncnc(N(C)C[C@H]4CCCO4)c3F)C2)cc1 [Example 8.148] — within 1.5-fold, 198 nM
- COc1c(OCC(F)F)ncnc1N1CC[C@@H](Oc2ccc([C@H](C)NC(C)=O)cc2)C1 [Example 7.54] — within 1.5-fold, 162 nM
- COc1c(OCC2CC2)ncnc1N1CC[C@@H](Oc2ccc([C@H](C)NC(=O)C3CC(F)C3)cc2)C1 (stereo partly shown) [Example 2.30] — 3.2-fold higher, 528 nM
- CC(=O)N[C@@H](C)c1ccc(O[C@@H]2CCN(c3cc(OCC(F)(F)F)ncn3)C2)cc1 [Example 7.9] — 5.3-fold higher, 879 nM
- CC(=O)N[C@@H](C)c1ccc(O[C@@H]2CCN(c3nc(OCC4CC4(F)F)ncc3F)C2)cc1 (stereo partly shown) [Example 7.67] — 4.8-fold higher, 789 nM
- CC(=O)N[C@@H](C)c1ccc(O[C@@H]2CCN(c3ncnc(O[C@@H]4CCOC4)c3F)C2)cc1 [Example 7.38] — within 1.5-fold, 196 nM
- CCN(C)c1ncc(Br)c(N2CC[C@@H](Oc3ccc([C@H](C)NC(C)=O)cc3)C2)n1 [Example 8.57] — 6.1-fold higher, 1000 nM
- CC(=O)N[C@@H](C)c1ccc(O[C@@H]2CCN(c3ncnc(N4CC[C@@H](F)C4)c3F)C2)cc1 [Example 8.287] — 2.8-fold higher, 455 nM
- COCCCN(C)c1ncc(F)c(N2CC[C@@H](Oc3ccc([C@H](C)NC(C)=O)cc3)C2)n1 [Example 8.167] — 1.6-fold lower, 101 nM
- CCCNc1ncc(Cl)c(N2CC[C@@H](Oc3ccc([C@H](C)NC(C)=O)cc3)C2)n1 [Example 8.55] — 6-fold higher, 987 nM
- CC(=O)N[C@@H](C)c1ccc(O[C@@H]2CCN(c3nc(N4CCCC4(C)C)ncc3F)C2)cc1 [Example 8.271] — within 1.5-fold, 170 nM
- CC(=O)N[C@@H](C)c1ccc(O[C@@H]2CCN(c3ncnc(OC[C@H]4CC4(F)F)c3F)C2)cc1 [Example 7.45] — 1.7-fold lower, 99 nM
- CC(=O)N[C@@H](C)c1ccc(O[C@@H]2CCN(c3ccnc(N(CCC#N)C4CCCC4)n3)C2)cc1 [Example 8.108] — 2.3-fold higher, 375 nM
- C[C@H](NC(=O)Nc1ccon1)c1ccc(OC2CCN(c3ncnc(OCC4CC4)c3F)C2)cc1 (stereo partly shown) [Example 3.13] — 3.3-fold lower, 50 nM
- CC(=O)N[C@@H](C)c1ccc(O[C@@H]2CCN(c3ccnc(N4CCOCC4)n3)C2)cc1 [Example 8.71] — within 1.5-fold, 199 nM
- COC1CCCN(c2ncnc(N3CC[C@@H](Oc4ccc([C@H](C)NC(C)=O)cc4)C3)c2F)C1 (stereo partly shown) [Example 8.252] — 6.4-fold higher, 1060 nM
- CC(=O)N[C@@H](C)c1ccc(O[C@@H]2CCN(c3nc(N4CCOC(C)(C)C4)ncc3F)C2)cc1 [Example 8.224] — within 1.5-fold, 170 nM
- CCCNc1ncnc(N2CC[C@@H](Oc3ccc([C@H](C)NC(=O)c4sc(NC(=O)CC)nc4C)cc3)C2)c1OC [Example 8.320] — 4.5-fold higher, 742 nM
- CC(=O)N[C@@H](C)c1ccc(O[C@@H]2CCN(c3ncc(OCC4CC4)cn3)C2)cc1 [Example 6.7] — 6.5-fold higher, 1080 nM
- CC(=O)N[C@@H](C)c1ccc(O[C@@H]2CCN(c3nc(N(C)CC4CC4)ncc3F)C2)cc1 [Example 8.9] — 5-fold lower, 33 nM
- CCCN(C)c1ncc(Br)c(N2CC[C@@H](Oc3ccc([C@H](C)NC(C)=O)cc3)C2)n1 [Example 8.62] — within 1.5-fold, 184 nM
- CCCOc1ncnc(N2CC[C@@H](Oc3ccc([C@H](C)NC(C)=O)cc3)C2)c1F [Example 7.19] — 2.5-fold lower, 65 nM
- COC(CN(C)c1nccc(N2CC[C@@H](Oc3ccc([C@H](C)NC(C)=O)cc3)C2)n1)OC [Example 8.42] — 3.8-fold higher, 632 nM
- CC(=O)N[C@@H](C)c1ccc(O[C@@H]2CCN(c3nc(N(C)C)ncc3F)C2)cc1 [Example 8.1, N—((S)-1-(4-((R)-1-(2-(dimethylamino)-5-fluoropyrimidin-4-yl)pyrrolidin-3-yloxy)phenyl)ethyl)acetamide] — 3-fold lower, 55 nM
- CCN(CCC#N)c1ncnc(N2CC[C@@H](Oc3ccc([C@H](C)NC(C)=O)cc3)C2)c1Cl [Example 8.116] — 2.8-fold higher, 470 nM
- C[C@H](NC(=O)c1cnco1)c1ccc(OC2CCN(c3ccnc(N4CCOCC4)n3)C2)cc1 (stereo partly shown) [Example 2.6] — 1.9-fold higher, 320 nM
- CC(=O)N[C@@H](C)c1ccc(O[C@@H]2CCN(c3nc(N(C)CCOC(C)(C)C)ncc3Cl)C2)cc1 [Example 8.192] — 3.9-fold higher, 640 nM
- CC(=O)N[C@@H](C)c1ccc(O[C@@H]2CCN(c3nc(N(C)C4CCCC4)ncc3F)C2)cc1 [Example 8.11] — 2.8-fold lower, 58 nM
- CC(=O)N[C@@H](C)c1ccc(O[C@@H]2CCN(c3nc(N4CCCOCC4)ncc3Cl)C2)cc1 [Example 8.220] — within 1.5-fold, 182 nM
- COCCCN(C)c1ncc(Cl)c(N2CC[C@@H](Oc3ccc([C@H](C)NC(C)=O)cc3)C2)n1 [Example 8.168] — within 1.5-fold, 173 nM
- CC(=O)N[C@@H](C)c1ccc(O[C@@H]2CCN(c3nc(N(C)CCC(F)(F)F)ncc3F)C2)cc1 [Example 8.158] — 2.9-fold lower, 56 nM
- CC(=O)N[C@@H](C)c1ccc(O[C@@H]2CCN(c3ccnc(N(C)C)n3)C2)cc1 [Example 8.14] — 4.3-fold higher, 710 nM
- CC(=O)N[C@@H](C)c1ccc(O[C@@H]2CCN(c3ncnc(N(C)CC(C)C)c3F)C2)cc1 [Example 8.268] — within 1.5-fold, 198 nM
- COC(=O)N[C@@H](C)c1ccc(O[C@@H]2CCN(c3ccnc(N(C)CC(F)F)n3)C2)cc1 [Example 4.1, Methyl (S)-1-(4-((R)-1-(2-((2,2-difluoroethyl)(methyl)amino)pyrimidin-4-yl)pyrrolidin-3-yloxy)phenyl)ethylcarbamate] — 2.5-fold lower, 65 nM
- C[C@H](NC(=O)N(C)C)c1ccc(O[C@H]2CCN(c3nc(N4CCOCC4)ncc3F)C2)cc1 [Example 3.18] — within 1.5-fold, 113 nM
- CC(=O)N[C@@H](C)c1ccc(O[C@@H]2CCN(c3ncnc(N4CC(F)(F)C4)c3Cl)C2)cc1 [Example 8.111] — within 1.5-fold, 116 nM
- C[C@H](NC(=O)OCC1CC1)c1ccc(O[C@@H]2CCN(c3ncnc(OCC4CC4)c3F)C2)cc1 [Example 7.36] — 18-fold higher, 2900 nM
- CCN(C)c1ncnc(N2CC[C@@H](Oc3ccc([C@H](C)NC(C)=O)cc3)C2)c1F [Example 8.94] — the same, 165 nM
- CC(=O)N[C@@H](C)c1ccc(O[C@@H]2CCN(c3ccnc(N4CCC(F)(F)C4)n3)C2)cc1 [Example 8.43] — 2.1-fold lower, 79 nM
- CCC(=O)N[C@@H](C)c1ccc(OC2CCN(c3ccnc(N(C)CC)n3)C2)cc1 (stereo partly shown) [Example 2.13] — 1.9-fold lower, 85 nM
- CC(=O)N[C@@H](C)c1ccc(O[C@@H]2CCN(c3nc(N4CC=CC4)ncc3F)C2)cc1 [Example 8.244] — the same, 165 nM
- CC(=O)N[C@@H](C)c1ccc(O[C@@H]2CCN(c3nc(OCC(F)F)ncc3F)C2)cc1 [Example 7.15] — 5-fold higher, 828 nM
